Results reported in patent US20220389379A1, “PRIMARY BREAST EPITHELIAL CELL CULTURE MEDIUM, CULTURE METHOD AND USE THEREOF” (PRECEDO PHARMACEUTICALS CO., LTD, priority 2019, published 2022).

tested on: primary breast tumor epithelial cells isolated from breast cancer tissues (HMFL-XN1, HMFL-XN3, HMFL-XN4, HMFL-XN6, HMFL-XN8); test: Optimization of primary breast epithelial cell culture medium: cell count after culture with medium additives; type: cell-based, human; design: key: +: compared with the basis medium, the medium added with the additive(s) can promote the proliferation of primary breast tumor epithelial cells isolated from at least three cases of breast cancer tissues; −: the medium added with the additive(s) has the effect of inhibiting proliferation of primary breast tumor epithelial cells isolated from at least two cases of breast cancer tissues; ○: the medium added with this additive(s) has no significant effect on the proliferation of primary breast tumor epithelial cells isolated from at least three cases of breast cancer tissues; conditions: not given
Method: Matrigel (registered trademark) (manufactured by BD Biosciences) was diluted at 1:100 in serum-free DMEM/F12 medium to prepare an extracellular matrix dilution, which was added to a 48-well culture plate with 200 μl/well to completely cover the bottom of the wells of the culture plate. The resultant was let stand for 1 hour in a 37° C. incubator. After 1 hour, the extracellular matrix dilution was removed to provide a Matrigel-coated plate.
First, a basis medium was prepared. To a commercial DMEM/F-12 medium, GlutaMAX-I (manufactured by Thermo Fisher SCIENTIFIC) was added at the specified concentration (1:100 dilution), human insulin (manufactured by Sigma) was added at a final concentration of 10 μg/ml, ROCK kinase inhibitor Y27632 (manufactured by Sigma) was added at a final concentration of 10 μM, and penicillin-streptomycin (manufactured by Thermo Fisher SCIENTIFIC) was added at a 1:100 dilution ratio, which provides the basis medium.
Next, different types of additives (as shown in Table 1) were added to the basis medium to prepare breast epithelial cell culture mediums containing different supplementary components, and the mediums with different components were added at a volume of 500 μl/well to 48-well plates which were coated with extracellular matrix gel (Matrigel). Breast tumor cells (HMFL-XN1) isolated from breast cancer tissue in step (1) of this Example were inoculated in a Matrigel-coated 48-well culture plate at a cell density of 1×10^4 cells/well, and equal numbers of freshly isolated breast tumor cells (HMFL-XN1) were cultured under different medium formulations at 37° C., under 5% CO2 concentration and 20% oxygen concentration. The medium was renewed every 4 days after the start of the culture. After 10 days of culture, cell counts were performed. As an experiment control, the basis medium without any additives was used. Breast tumor cells isolated from the remaining four breast cancer tissue samples were cultured and counted in the same manner as above.

Molecule | Degree of cell
Cholera toxin | ○

same assay, conditions: additive at the concentration given in Table 1 added to basis medium; cell count after 10 days of culture, compared with basis medium; five breast cancer samples

Molecule | Degree of cell
Cc1cccc(-c2nn(C(=S)Nc3ccccc3)cc2-c2ccnc3ccccc23)n1 [A8301, reference compound] | +
Cc1ccc2c(c1)C(=O)C1(O)CCN(c3ccccc3)C1=N2 (centres unmarked) [Blebbistatin, reference compound] | −
CC(=O)N[C@@H](CS)C(=O)O [N-Acetyl Cysteine, reference compound] | −
NC(=O)c1cccnc1 [Nicotinamide, reference compound] | −
CCCCC[C@H](O)/C=C/[C@H]1[C@H](O)CC(=O)[C@@H]1C/C=C\CCCC(=O)O [Prostaglandin E2, reference compound] | −
Oc1ccc(-c2nc(-c3ccncc3)c(-c3ccc(F)cc3)[nH]2)cc1 [SB202190, reference compound] | +
N[C@@H](Cc1cc(I)c(Oc2ccc(O)c(I)c2)c(I)c1)C(=O)O [Triiodothyronine, reference compound] | ○
Basic fibroblast growth factor: medium additive (R&D) | +
Epidermal growth factor: epidermal growth factor (EGF), medium additive (NSDSECPLSHDGYCLHDGVCMYIEALDKYACNCVVGYIGERCQYRDLKWWELR; UniProt P01133 971-1023, looked up) | +
Hepatocyte growth factor: medium additive (Peprotech) | +
Human leukemia inhibitory factor: medium additive (Peprotech) | −
Insulin growth factor1: medium additive (Peprotech) | +
Interleukin 6: medium additive (R&D) | −
Neuregulin 1 | +

tested on: breast tumor cells (HMFL-XN29); test: Drug sensitivity functional test, Cell Titer-Glo cell viability; type: cell-based, human; conditions: HMFL-XN29, triple-negative patient; 72 hours after administration
Method: (§1) 1. Plating of primary breast tumor cells: the single cell suspension of breast tumor cells (HMFL-XN5, HMFL-XN7, HMFL-XN10, HMFL-XN12, and HMFL-XN29) obtained by the same method of the invention according to step (3) of Example 4, was inoculated at a density of 3000-5000 cells/well in a 384-well plate, and the cells were adhered overnight.
(1) The drug storage plates were prepared by gradient dilution method: 10 μL of the drug stock solutions to be tested (the concentration of the drug stock solution was determined based on 2 times of the maximum blood concentration Cmax of the drug in the human body) were respectively taken, and added to 0.5 mL EP tubes containing 20 μL of DMSO; 10 μL of solutions from the above EP tubes were pipetted into second 0.5 mL EP tubes loaded with 20 μL of DMSO, that is, diluting the drugs in a ratio of 1:3. […]
(§2) (3) Test of cell viability: 72 hours after administration, Cell Titer-Glo assay kit (manufactured by Promega) was used to detect the chemiluminescence value of the cultured cells after drug administration. […] The prepared Cell Titer-Glo detection solution was added to each well, and a microplate reader was used to detect the chemiluminescence value after mixing.
(§3) Graphs were made by using Graphpad Prism 7.0 software and the half-inhibition rate IC50 was calculated.

Molecule | drug sensitivity compared with breast tumor cells from other patients
CS(=O)(=O)CCNCc1ccc(-c2ccc3ncnc(Nc4ccc(OCc5cccc(F)c5)c(Cl)c4)c3c2)o1 [lapatinib] | less sensitive
CC/C(=C(\c1ccccc1)c1ccc(OCCN(C)C)cc1)c1ccccc1 [tamoxifen] | less sensitive

tested on: breast tumor cells (HMFL-XN12); test: as above; type: cell-based; conditions: Homo sapiens; HMFL-XN12, HER2-positive patient; 72 hours after administration; read-out: half-inhibitory amount (IC50)
Method: as §1
(§4) (1) The drug storage plates were prepared by gradient dilution method: 10 μL of the drug stock solutions to be tested (the concentration of the drug stock solution was determined based on 2 times of the maximum blood concentration Cmax of the drug in the human body) were respectively taken, and added to 0.5 mL EP tubes containing 20 μL of DMSO; 10 μL of solutions from the above EP tubes were pipetted into second 0.5 mL EP tubes loaded with 20 μL of DMSO, that is, diluting the drugs in a ratio of 1:3. The above method was repeated for gradually dilution and 7 concentrations required for dosing were obtained. Different concentrations of drugs were added to the 384-well drug storage plates. Equal volume of DMSO was added to each well of the solvent control group as a control. In this example, the drugs to be tested were epirubicin (manufactured by MCE), lapatinib (manufactured by MCE), docetaxel (manufactured by MCE), and tamoxifen (manufactured by MCE).
(§5) (2) Using a high-throughput automated workstation (purchased from Perkin Elmer), different concentrations of drugs and solvent controls in the 384-well drug storage plates were added to 384-well cell culture plates plated with the breast tumor cells. […]
as §2, §3

Molecule | IC50
CS(=O)(=O)CCNCc1ccc(-c2ccc3ncnc(Nc4ccc(OCc5cccc(F)c5)c(Cl)c4)c3c2)o1 [lapatinib] | 920 nM

tested on: breast tumor cells (HMFL-XN7); test: as above; type: cell-based; conditions: Homo sapiens; HMFL-XN7, hormone receptor-positive, HER2 receptor-negative patient; 72 hours after administration; read-out: half-inhibition rate IC50
Method: as §1, §4, §5, §2, §3

Molecule | IC50
CS(=O)(=O)CCNCc1ccc(-c2ccc3ncnc(Nc4ccc(OCc5cccc(F)c5)c(Cl)c4)c3c2)o1 [lapatinib] | 2500 nM
CC/C(=C(\c1ccccc1)c1ccc(OCCN(C)C)cc1)c1ccccc1 [tamoxifen] | 980 nM
